In brackets after ≈: the same amount, converted by molar mass. Like-named read-outs stand apart in the source and are kept apart here.

Data on 1 compound can be found in PMC12042115 (mLife, 2025).

Assay [1] deals with T1, Mtb ClpP1P2 (Mycobacterium tuberculosis, UniProt P9WPC3+P9WPC5). The assay is described as follows: k obs/[I] determination from progress curves. As to conditions: no pre‐incubation, 50 nM ClpP1P2, 200 µM substrate. It is filed as biochemical. The protocol: 10 µM ClpP1P2 was pre‐incubated with 10 µM GDI‐5755 or DMSO solvent for 60 min at room temperature. To induce the formation of the [EI] complex, 0.5 mM Bz‐HT was also added. The mixture was diluted 100‐, 200‐, or 400‐fold to a 50 µl final volume with the peptidase reaction buffer and 20 μM substrate to start the jump dilution experiment. Fluorescence was recorded every 5 min continuously over a 220‐min course. To determine the k obs of the competitive inhibitor, the compound was dispended into a black 384‐well plate in a twofold concentration gradient from 20 µM to 0.5 µM. Without pre‐incubation, the other components (50 nM ClpP1P2, 200 µM substrate, and 0.5 mM Bz‐HT in the PIPES buffer as above) were added like in the peptidase degradation assay. The progress was monitored by continuously recording the fluorescence readouts. The fluorescence vs reaction time in seconds was fitted into Equation (2) using GraphPad Prism 10. (2) [P]=νst+νi−νs/kobs[1−exp(−kobst)] where P represents the product concentration, v s is the steady‐state reaction rate (0 in this case), v i is the initial rate, t is a time point, and k obs is the first‐order rate constant for onset of inhibition. The k obs values obtained were plotted against the inhibitor concentration and fitted into linear regression to yield k obs/[I] values as the slope, indicating the inhibition potency of the compound.

Assay [2] concerns the target T1, Mtb ClpP1P2. The assay is described as follows: Mtb ClpP1P2 peptidase assay (library screening and IC50 determination). Type of assay: biochemical.
In a further assay the test system is M. tuberculosis H37Rv. The experiment in a line: MIC against Mtb H37Rv. It is filed as cell-based, Mycobacterium tuberculosis. To be noted: Mycobacterium tuberculosis, H37RV.

T1 sequence (P9WPC3 16-214, one chain of several): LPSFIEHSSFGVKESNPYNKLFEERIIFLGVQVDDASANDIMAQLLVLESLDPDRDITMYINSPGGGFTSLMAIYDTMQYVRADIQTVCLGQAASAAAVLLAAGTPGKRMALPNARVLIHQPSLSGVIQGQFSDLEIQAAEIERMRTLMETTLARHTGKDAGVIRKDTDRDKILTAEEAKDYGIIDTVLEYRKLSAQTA

The IC50 is the concentration at which inhibition is half-maximal. As a reminder, the MIC90 is the lowest concentration that inhibits either 90% of growth or 90% of the strains tested, depending on the study. Low readings indicate higher susceptibility, high ones lower susceptibility. Consider `O=C(Oc1ccc(Cl)cc1)c1ccc(N2CCOCC2)c([N+](=O)[O-])c1` [GDI‐5755], for which the “inactivation efficiency k obs/[I]” value at Mtb ClpP1P2 [1] was found to be 178 ± 10.7 M⁻¹ s⁻¹. The IC50 on Mtb ClpP1P2 [2] (Figure 2B, neat/synthesized compounds, read-out: ClpP1P2 IC50) was around 2100 nM; on Mtb ClpP1P2 [2] (enzyme pre‐incubated with inhibitor before adding substrate, decreased to nearly enzyme concentration, read-out: IC50 after prolonged pre‐incubation) it was around 130 nM; at Mtb ClpP1P2 [2] (library stocks, concentration–response, read-out: IC50), 2090 nM; on Mtb ClpP1P2 [2] (resynthesized compound, screening assay conditions, three replicates, read-out: IC50), 2400 ± 70 nM. In the assay with M. tuberculosis H37Rv, this compound registered an MIC90 of 100 µM (≈ 36.3 µg/mL).
